{"source": "patent KR20140119363A", "about": "“보리코나졸이 함유된 안정화된 조성물” (에스케이케미칼주식회사, priority 2013, dated 2014)", "origin": "cited, not measured here", "key": {"[1]": {"details": "degradation product triazole acetophenone formed"}, "[2]": {"tested_on": "deep-seated mycosis [심재성 진균증]"}, "[3]": {"details": "in vivo"}}, "data": [{"compound": "C[C@@H](c1ncncc1F)[C@](O)(Cn1cncn1)c1ccc(F)cc1F", "note": "[보리코나졸]", "values": [{"measurement": "stability to moisture and heat", "setting": "[1]", "value": "수분 및 열에 불안정"}]}, {"compound": "C[C@@H]1[C@H](O)[C@@H](C)/C=C/C=C/C=C/C=C/C=C/C=C/C=C/[C@H](O[C@@H]2O[C@H](C)[C@@H](O)[C@H](N)[C@@H]2O)C[C@@H]2O[C@](O)(C[C@@H](O)C[C@@H](O)[C@H](O)CC[C@@H](O)C[C@@H](O)CC(=O)O[C@H]1C)C[C@H](O)[C@H]2C(=O)O", "note": "[암포테리신 B]", "values": [{"measurement": "response rate", "setting": "[2]; overall average", "value": "~34", "unit": "%"}, {"measurement": "nephrotoxicity", "setting": "[3]", "value": "심각한 문제"}]}, {"compound": "CCC(C)n1ncn(-c2ccc(N3CCN(c4ccc(OCC5COC(Cn6cncn6)(c6ccc(Cl)cc6Cl)O5)cc4)CC3)cc2)c1=O", "note": "(stereo not shown) [이트라코나졸]", "values": [{"measurement": "treatment success rate", "setting": "[2]; in vivo", "value": "그다지 높지 않은"}]}]}
